The values below are quoted from earlier work in US20040266821A1, “Acylated piperidine derivatives as melanocortin-4 receptor agonists” (priority 2001, published 2004).

For data set [1] the following is noted: oral route.
Assay in data set [2]: not given
The source holds these as a separate data set.

“Ac-Nle-c[Asp-His-DPhe-Arg-Trp-Lys]-NH2 [MT-II]”: under “in vivo”, the duration of action result was “approximately 2.5 hours” and the “time to onset of erection” value is 10 to 20 min. Further, for the setting “injected intramuscularly or subcutaneously”, the response rate is on record as 75%. Further, the “absorption into the systemic circulation” value in data set [1] is recorded as “not absorbed into the systemic circulation”.
Take `Cc1ccc(N(CC2=NCCN2)c2cccc(O)c2)cc1` [phentolamine]: in data set [2] (after an oral dose), the duration of effect is 2 h and the onset of action was 5 to 30 min. In data set [2] (oral), the “share of men/patients with adequate response” value is listed as 35-40%.
